Source: publication PMC10436550, “Subacute toxicity evaluations of LPM3480392 in rats, a full µ-opioid receptor biased agonist” (Frontiers in Pharmacology, 2023)
Like-named read-outs stand apart in the source and are kept apart here.

Experiment: Toxicokinetics, plasma LPM3480392 after intravenous administration
Format: in vivo, Sprague Dawley (SD) rats
Details: for AUC(0-t) / concentration at 2 min: Sprague-Dawley, rat, plasma; for AUC(0-t): iv; for concentration at 2 min: intravenous
Method: Blood samples from animals in LPM3480392 groups were collected at predose and 2 min, 30 min, 1 h and 4 h postdose of the 1st dosing on Days 1 and 28; at 2 min and 4 h postdose of the 2nd dosing on Days 1 and 28; at 2 min, 1 h and 4 h postdose the 3rd dosing on Days 1 and 28. Animals in control group were sampled at predose and 2 min postdose of the 1st dosing on Days 1 and 28. Approximately 0.36 mL of blood was collected from the jugular vein of surviving TK animals at each time point. Whole blood samples were anticoagulated with EDTA-K2 and centrifuged at 2°C–8°C and 1800 × g for 10 min. The harvested plasma was stored below −66°C before the analysis. LC-MS/MS methods (liquid chromatograph/mass spectrometer) were used to detect concentrations of LPM3480392 at each time point. TK parameters (AUC, Cmax, Tmax) were calculated by Phoenix WinNonlin (Pharsight) 8.2. The detection instruments include ultra-performance liquid chromatography (Waters, United States ACQUITY UPLC I -CLASS) and triple quadrupole tandem mass spectrometer (Waters, United States, Xevo TQ-S).

Fc1ccc([C@]2(CCNCc3cccc(Cl)c3)CCO[C@]3(CCOC3)C2)nc1 [LPM3480392]
AUC(0-t) (both sexes, 2.4 mg/kg/day, 2.4 mg/kg/day iv, 28th dosing day, F + M, read-out: AUC0–12h): 1490 ± 169 ng·h/mL
AUC(0-t) (both sexes, 2.4 mg/kg/day, female + male, 2.4 mg/kg/day, Day 1, read-out: Mean AUC0–12h): 1250 ng·h/mL
AUC(0-t) (both sexes, 2.4 mg/kg/day, female + male, 2.4 mg/kg/day, Day 28, read-out: Mean AUC0–12h): 1490 ng·h/mL
Mean AUC0–12h ratio, Day 28 and Day 1 (female + male, 1.2 mg/kg/day): 1.0
Mean AUC0–12h ratio, Day 28 and Day 1 (female + male, 2.4 mg/kg/day): 1.2
concentration at 2 min (female, 0.6 mg/kg/day, 0.6 mg/kg/day iv, 1st dosing day, F, read-out: C2min (The 1st dosing)): 78.4 ± 10.9 ng/mL
concentration at 2 min (female, 0.6 mg/kg/day, 0.6 mg/kg/day iv, 1st dosing day, F, read-out: C2min (The 2nd dosing)): 66.2 ± 12.4 ng/mL
concentration at 2 min (female, 0.6 mg/kg/day, 0.6 mg/kg/day iv, 1st dosing day, F, read-out: C2min (The 3rd dosing)): 55.5 ± 8.94 ng/mL
concentration at 2 min (female, 0.6 mg/kg/day, 0.6 mg/kg/day iv, 28th dosing day, F, read-out: C2min (The 1st dosing)): 90.1 ± 8.8 ng/mL
concentration at 2 min (female, 0.6 mg/kg/day, 0.6 mg/kg/day iv, 28th dosing day, F, read-out: C2min (The 2nd dosing)): 73 ± 12.6 ng/mL
concentration at 2 min (female, 0.6 mg/kg/day, 0.6 mg/kg/day iv, 28th dosing day, F, read-out: C2min (The 3rd dosing)): 68.5 ± 11.8 ng/mL
concentration at 2 min (female, 1.2 mg/kg/day, 1.2 mg/kg/day iv, 1st dosing day, F, read-out: C2min (The 1st dosing)): 181 ± 24.8 ng/mL
concentration at 2 min (female, 1.2 mg/kg/day, 1.2 mg/kg/day iv, 1st dosing day, F, read-out: C2min (The 2nd dosing)): 169 ± 26.2 ng/mL
concentration at 2 min (female, 1.2 mg/kg/day, 1.2 mg/kg/day iv, 1st dosing day, F, read-out: C2min (The 3rd dosing)): 157 ± 25.5 ng/mL
concentration at 2 min (female, 1.2 mg/kg/day, 1.2 mg/kg/day iv, 28th dosing day, F, read-out: C2min (The 1st dosing)): 187 ± 20 ng/mL
concentration at 2 min (female, 1.2 mg/kg/day, 1.2 mg/kg/day iv, 28th dosing day, F, read-out: C2min (The 2nd dosing)): 167 ± 14.1 ng/mL
concentration at 2 min (female, 1.2 mg/kg/day, 1.2 mg/kg/day iv, 28th dosing day, F, read-out: C2min (The 3rd dosing)): 166 ± 16.1 ng/mL
concentration at 2 min (female, 2.4 mg/kg/day, 2.4 mg/kg/day iv, 1st dosing day, F, read-out: C2min (The 1st dosing)): 331 ± 25.1 ng/mL
concentration at 2 min (female, 2.4 mg/kg/day, 2.4 mg/kg/day iv, 1st dosing day, F, read-out: C2min (The 2nd dosing)): 292 ± 33.6 ng/mL
concentration at 2 min (female, 2.4 mg/kg/day, 2.4 mg/kg/day iv, 1st dosing day, F, read-out: C2min (The 3rd dosing)): 234 ± 52.1 ng/mL
concentration at 2 min (female, 2.4 mg/kg/day, 2.4 mg/kg/day iv, 28th dosing day, F, read-out: C2min (The 1st dosing)): 356 ± 81.9 ng/mL
concentration at 2 min (female, 2.4 mg/kg/day, 2.4 mg/kg/day iv, 28th dosing day, F, read-out: C2min (The 2nd dosing)): 387 ± 54.9 ng/mL
concentration at 2 min (female, 2.4 mg/kg/day, 2.4 mg/kg/day iv, 28th dosing day, F, read-out: C2min (The 3rd dosing)): 323 ± 20.7 ng/mL
AUC(0-t) (female, 0.6 mg/kg/day, 0.6 mg/kg/day iv, 1st dosing day, F, read-out: AUC0–12h): 319 ± 56 ng·h/mL
AUC(0-t) (female, 0.6 mg/kg/day, 0.6 mg/kg/day iv, 28th dosing day, F, read-out: AUC0–12h): 331 ± 48.3 ng·h/mL
AUC(0-t) (female, 1.2 mg/kg/day, 1.2 mg/kg/day iv, 1st dosing day, F, read-out: AUC0–12h): 719 ± 122 ng·h/mL
AUC(0-t) (female, 1.2 mg/kg/day, 1.2 mg/kg/day iv, 28th dosing day, F, read-out: AUC0–12h): 735 ± 63.4 ng·h/mL
AUC(0-t) (female, 2.4 mg/kg/day, 2.4 mg/kg/day iv, 1st dosing day, F, read-out: AUC0–12h): 1310 ± 57.9 ng·h/mL
AUC(0-t) (female, 2.4 mg/kg/day, 2.4 mg/kg/day iv, 28th dosing day, F, read-out: AUC0–12h): 1580 ± 129 ng·h/mL
concentration at 2 min (male, 0.6 mg/kg/day, 0.6 mg/kg/day iv, 1st dosing day, M, read-out: C2min (The 1st dosing)): 98.1 ± 21.3 ng/mL
concentration at 2 min (male, 0.6 mg/kg/day, 0.6 mg/kg/day iv, 1st dosing day, M, read-out: C2min (The 2nd dosing)): 70.5 ± 14.7 ng/mL
concentration at 2 min (male, 0.6 mg/kg/day, 0.6 mg/kg/day iv, 1st dosing day, M, read-out: C2min (The 3rd dosing)): 64.7 ± 10.8 ng/mL
concentration at 2 min (male, 0.6 mg/kg/day, 0.6 mg/kg/day iv, 28th dosing day, M, read-out: C2min (The 1st dosing)): 84.3 ± 20.2 ng/mL
concentration at 2 min (male, 0.6 mg/kg/day, 0.6 mg/kg/day iv, 28th dosing day, M, read-out: C2min (The 2nd dosing)): 77.9 ± 8.2 ng/mL
concentration at 2 min (male, 0.6 mg/kg/day, 0.6 mg/kg/day iv, 28th dosing day, M, read-out: C2min (The 3rd dosing)): 79.4 ± 7.61 ng/mL
concentration at 2 min (male, 1.2 mg/kg/day, 1.2 mg/kg/day iv, 1st dosing day, M, read-out: C2min (The 1st dosing)): 170 ± 10.7 ng/mL
concentration at 2 min (male, 1.2 mg/kg/day, 1.2 mg/kg/day iv, 1st dosing day, M, read-out: C2min (The 2nd dosing)): 142 ± 28.9 ng/mL
concentration at 2 min (male, 1.2 mg/kg/day, 1.2 mg/kg/day iv, 1st dosing day, M, read-out: C2min (The 3rd dosing)): 139 ± 29.2 ng/mL
concentration at 2 min (male, 1.2 mg/kg/day, 1.2 mg/kg/day iv, 28th dosing day, M, read-out: C2min (The 1st dosing)): 171 ± 26.2 ng/mL
concentration at 2 min (male, 1.2 mg/kg/day, 1.2 mg/kg/day iv, 28th dosing day, M, read-out: C2min (The 2nd dosing)): 113 ± 9.1 ng/mL
concentration at 2 min (male, 1.2 mg/kg/day, 1.2 mg/kg/day iv, 28th dosing day, M, read-out: C2min (The 3rd dosing)): 131 ± 18.7 ng/mL
concentration at 2 min (male, 2.4 mg/kg/day, 2.4 mg/kg/day iv, 1st dosing day, M, read-out: C2min (The 1st dosing)): 328 ± 33.8 ng/mL
concentration at 2 min (male, 2.4 mg/kg/day, 2.4 mg/kg/day iv, 1st dosing day, M, read-out: C2min (The 2nd dosing)): 289 ± 10.5 ng/mL
concentration at 2 min (male, 2.4 mg/kg/day, 2.4 mg/kg/day iv, 1st dosing day, M, read-out: C2min (The 3rd dosing)): 225 ± 40.9 ng/mL
concentration at 2 min (male, 2.4 mg/kg/day, 2.4 mg/kg/day iv, 28th dosing day, M, read-out: C2min (The 1st dosing)): 346 ± 46 ng/mL
concentration at 2 min (male, 2.4 mg/kg/day, 2.4 mg/kg/day iv, 28th dosing day, M, read-out: C2min (The 2nd dosing)): 259 ± 68.3 ng/mL
concentration at 2 min (male, 2.4 mg/kg/day, 2.4 mg/kg/day iv, 28th dosing day, M, read-out: C2min (The 3rd dosing)): 317 ± 47.9 ng/mL
AUC(0-t) (male, 0.6 mg/kg/day, 0.6 mg/kg/day iv, 1st dosing day, M, read-out: AUC0–12h): 310 ± 35.6 ng·h/mL
AUC(0-t) (male, 0.6 mg/kg/day, 0.6 mg/kg/day iv, 28th dosing day, M, read-out: AUC0–12h): 366 ± 14.7 ng·h/mL
AUC(0-t) (male, 1.2 mg/kg/day, 1.2 mg/kg/day iv, 1st dosing day, M, read-out: AUC0–12h): 607 ± 83.4 ng·h/mL
AUC(0-t) (male, 1.2 mg/kg/day, 1.2 mg/kg/day iv, 28th dosing day, M, read-out: AUC0–12h): 625 ± 28.9 ng·h/mL
AUC(0-t) (male, 2.4 mg/kg/day, 2.4 mg/kg/day iv, 1st dosing day, M, read-out: AUC0–12h): 1190 ± 87.1 ng·h/mL
AUC(0-t) (male, 2.4 mg/kg/day, 2.4 mg/kg/day iv, 28th dosing day, M, read-out: AUC0–12h): 1400 ± 168 ng·h/mL
